# Source: patent US8871753B2, “Macrocyclic compounds and their use as kinase inhibitors” (Incyte Corporation, priority 2008, dated 2014)
# Structures can show the parent of a compound that is named as a salt. Where two headings read alike, the source gives them in different places.
# How the values were obtained:
# Type in all cases: biochemical
# [1] = target: TYK2 (Homo sapiens, UniProt P29597); test: TYK2 kinase inhibition (Table A1)
# [2] = target: T1, Recombinant Human Anaplastic Lymphoma Kinase (Homo sapiens, UniProt Q9UM73); test: ALK HTRF kinase assay; conditions: for ALK % of inhibition at a concentration of 500 nM or 1 mM: compound at 500 nM or 1 mM, 90 μM ATP; for IC50: Table B1, cells without percent sign
# T1 construct: purchased Invitrogen, Carlsbad, Calif
# Method in brief: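 Recombinant human ALK with biotinylated peptide substrate; phosphorylation detected by HTRF using Eu-labelled anti-phosphotyrosine antibody and streptavidin-allophycocyanin. IC50 from a sigmoidal fit with Hill slope.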
# [3] = target: T2, human JAK2 (a.a. 828-1132) (Homo sapiens, UniProt O60674); test: In vitro JAK kinase assay (HTRF, phosphorylation of a biotinylated peptide), JAK2
# T2 construct: JAK2 (a.a. 828-1132); His tag (N); made in house; host or cells: insect cells (baculovirus)
# Method in brief: (§1)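 Kinase reactions ran at room temperature for 1 h with ATP matched per isoform (JAK1 90 μM, JAK2 30 μM, JAK3 3 μM). After an EDTA stop, the phosphorylated biotin-peptide was read by HTRF using Eu-Py20 and SA-APC after 40 min binding.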
# [4] = target: T3, human JAK3 (a.a. 781-1124) (Homo sapiens, UniProt P52333); test: In vitro JAK kinase assay (HTRF, phosphorylation of a biotinylated peptide), JAK3
# T3 construct: JAK3 (a.a. 781-1124); His tag (N); made in house; host or cells: insect cells (baculovirus)
# Method in brief: as §1
# [5] = target: T4, human JAK1 (a.a. 837-1142) (Homo sapiens, UniProt P23458); test: In vitro JAK kinase assay (HTRF, phosphorylation of a biotinylated peptide), JAK1; conditions: read-out: JAK1 IC50
# T4 construct: human JAK1 (a.a. 837-1142); His tag (N); made in house; host or cells: insect cells (baculovirus)
# Method in brief: as §1
# [6] = method AA1 (30 μM ATP) or AA2 (1000 μM ATP), not stated per value
# [7] = method AA1 (3 μM ATP) or AA2 (1000 μM ATP), not stated per value
# [8] = method AA1 (90 μM ATP) or AA2 (1000 μM ATP), not stated per value
# T2 sequence (O60674 828-1132): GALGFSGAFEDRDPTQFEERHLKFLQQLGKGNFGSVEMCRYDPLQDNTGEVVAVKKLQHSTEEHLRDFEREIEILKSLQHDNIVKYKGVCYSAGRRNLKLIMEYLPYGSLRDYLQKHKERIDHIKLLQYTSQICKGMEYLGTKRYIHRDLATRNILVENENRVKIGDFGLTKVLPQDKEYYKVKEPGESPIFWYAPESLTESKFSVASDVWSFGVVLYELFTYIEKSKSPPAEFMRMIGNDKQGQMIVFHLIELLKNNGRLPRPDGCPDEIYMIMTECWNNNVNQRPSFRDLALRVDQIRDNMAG
# Sequence of TYK2 (P29597 whole entry): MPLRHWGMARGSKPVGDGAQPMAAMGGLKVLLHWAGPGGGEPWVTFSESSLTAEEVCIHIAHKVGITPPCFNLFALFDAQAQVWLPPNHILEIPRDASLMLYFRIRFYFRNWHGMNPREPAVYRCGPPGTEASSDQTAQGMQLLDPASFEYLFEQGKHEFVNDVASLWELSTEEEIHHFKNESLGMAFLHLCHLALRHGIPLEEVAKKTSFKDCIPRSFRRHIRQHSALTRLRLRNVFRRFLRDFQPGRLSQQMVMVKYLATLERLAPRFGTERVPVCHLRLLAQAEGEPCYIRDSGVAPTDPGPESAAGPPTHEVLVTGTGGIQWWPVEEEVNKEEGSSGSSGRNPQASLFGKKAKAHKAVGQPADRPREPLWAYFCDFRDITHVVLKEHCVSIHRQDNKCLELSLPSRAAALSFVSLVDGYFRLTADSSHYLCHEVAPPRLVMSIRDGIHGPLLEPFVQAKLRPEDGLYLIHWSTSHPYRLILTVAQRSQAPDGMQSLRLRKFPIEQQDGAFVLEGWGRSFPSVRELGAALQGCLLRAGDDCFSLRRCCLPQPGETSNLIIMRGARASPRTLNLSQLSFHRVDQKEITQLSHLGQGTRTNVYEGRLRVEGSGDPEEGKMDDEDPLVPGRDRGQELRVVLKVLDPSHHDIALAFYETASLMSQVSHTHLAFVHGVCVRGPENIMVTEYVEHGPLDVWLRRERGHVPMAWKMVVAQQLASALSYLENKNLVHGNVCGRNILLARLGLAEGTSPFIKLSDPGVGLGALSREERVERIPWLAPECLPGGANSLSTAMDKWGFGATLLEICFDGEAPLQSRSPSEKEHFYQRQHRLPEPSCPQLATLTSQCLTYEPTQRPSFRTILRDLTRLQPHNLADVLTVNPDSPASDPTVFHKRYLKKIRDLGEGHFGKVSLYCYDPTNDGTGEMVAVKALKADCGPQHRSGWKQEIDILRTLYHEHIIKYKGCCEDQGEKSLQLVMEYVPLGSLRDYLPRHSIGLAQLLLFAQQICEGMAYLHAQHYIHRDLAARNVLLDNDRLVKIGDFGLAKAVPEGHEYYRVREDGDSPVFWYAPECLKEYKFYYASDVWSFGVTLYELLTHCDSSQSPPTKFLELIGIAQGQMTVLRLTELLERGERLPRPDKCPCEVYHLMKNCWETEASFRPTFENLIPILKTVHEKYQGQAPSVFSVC
# T3 sequence (P52333 781-1124): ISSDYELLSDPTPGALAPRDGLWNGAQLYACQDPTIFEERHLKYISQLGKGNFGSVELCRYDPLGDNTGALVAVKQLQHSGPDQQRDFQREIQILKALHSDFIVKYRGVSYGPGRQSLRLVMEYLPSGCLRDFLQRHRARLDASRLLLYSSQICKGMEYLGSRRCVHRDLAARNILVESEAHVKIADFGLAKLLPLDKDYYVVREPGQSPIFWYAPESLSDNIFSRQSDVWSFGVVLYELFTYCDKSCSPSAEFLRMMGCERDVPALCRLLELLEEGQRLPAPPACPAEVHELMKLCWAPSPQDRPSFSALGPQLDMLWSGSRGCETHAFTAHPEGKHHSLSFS
# T4 sequence (P23458 849-1154): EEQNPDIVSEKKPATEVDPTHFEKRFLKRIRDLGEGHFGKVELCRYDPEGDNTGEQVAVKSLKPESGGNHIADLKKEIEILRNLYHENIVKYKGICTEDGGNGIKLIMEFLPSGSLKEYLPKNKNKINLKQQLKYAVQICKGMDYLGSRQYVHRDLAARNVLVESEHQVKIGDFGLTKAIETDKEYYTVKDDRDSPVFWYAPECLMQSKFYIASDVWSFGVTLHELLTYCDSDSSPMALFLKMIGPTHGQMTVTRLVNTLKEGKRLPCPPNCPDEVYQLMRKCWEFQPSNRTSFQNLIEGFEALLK
# T1 sequence (Q9UM73 19-1620): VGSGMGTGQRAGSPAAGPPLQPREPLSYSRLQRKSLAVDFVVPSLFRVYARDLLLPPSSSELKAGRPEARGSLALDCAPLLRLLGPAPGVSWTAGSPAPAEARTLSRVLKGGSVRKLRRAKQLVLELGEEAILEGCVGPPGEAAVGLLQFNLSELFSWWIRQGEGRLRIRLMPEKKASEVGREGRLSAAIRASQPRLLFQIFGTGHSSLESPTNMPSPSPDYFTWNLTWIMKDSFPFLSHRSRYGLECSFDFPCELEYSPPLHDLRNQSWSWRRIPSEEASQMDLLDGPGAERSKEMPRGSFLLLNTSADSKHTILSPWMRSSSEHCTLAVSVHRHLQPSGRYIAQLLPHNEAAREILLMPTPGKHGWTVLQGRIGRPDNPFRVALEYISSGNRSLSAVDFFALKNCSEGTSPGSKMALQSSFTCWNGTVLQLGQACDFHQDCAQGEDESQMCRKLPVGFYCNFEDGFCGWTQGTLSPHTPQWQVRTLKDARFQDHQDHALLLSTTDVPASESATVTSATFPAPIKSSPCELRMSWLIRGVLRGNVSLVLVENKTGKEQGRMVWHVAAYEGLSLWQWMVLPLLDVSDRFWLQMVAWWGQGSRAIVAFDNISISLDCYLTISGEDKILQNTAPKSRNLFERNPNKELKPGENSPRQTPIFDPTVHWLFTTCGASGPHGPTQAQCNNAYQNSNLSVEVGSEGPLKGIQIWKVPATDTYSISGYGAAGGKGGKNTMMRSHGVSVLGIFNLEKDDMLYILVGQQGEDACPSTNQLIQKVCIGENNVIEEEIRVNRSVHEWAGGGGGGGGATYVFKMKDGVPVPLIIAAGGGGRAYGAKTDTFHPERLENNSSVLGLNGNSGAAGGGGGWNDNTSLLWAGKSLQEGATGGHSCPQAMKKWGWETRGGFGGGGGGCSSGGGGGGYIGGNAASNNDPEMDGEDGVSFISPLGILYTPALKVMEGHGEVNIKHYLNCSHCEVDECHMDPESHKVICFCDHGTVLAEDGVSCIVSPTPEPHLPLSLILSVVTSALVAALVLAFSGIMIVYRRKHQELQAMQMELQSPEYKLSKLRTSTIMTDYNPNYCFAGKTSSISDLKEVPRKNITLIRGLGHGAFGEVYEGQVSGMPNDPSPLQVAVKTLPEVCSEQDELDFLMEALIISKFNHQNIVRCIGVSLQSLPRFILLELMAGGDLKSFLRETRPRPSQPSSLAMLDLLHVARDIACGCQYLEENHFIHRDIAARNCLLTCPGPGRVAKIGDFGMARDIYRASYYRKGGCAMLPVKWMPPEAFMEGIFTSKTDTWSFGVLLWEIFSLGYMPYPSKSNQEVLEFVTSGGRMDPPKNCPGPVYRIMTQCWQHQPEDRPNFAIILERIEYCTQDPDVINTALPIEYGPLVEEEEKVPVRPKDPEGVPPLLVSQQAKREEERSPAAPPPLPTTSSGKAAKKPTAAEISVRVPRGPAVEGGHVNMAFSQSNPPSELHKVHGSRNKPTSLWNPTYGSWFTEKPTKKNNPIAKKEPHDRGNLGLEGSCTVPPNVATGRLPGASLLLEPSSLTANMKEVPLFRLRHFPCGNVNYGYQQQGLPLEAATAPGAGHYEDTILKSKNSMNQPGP
Structure (SMILES),IC50 [1],ALK % of inhibition at a concentration of 500 nM or 1 mM [2],"IC50 [3, 6]","IC50 [4, 7]","IC50 [5, 8]",IC50 ([1]; Table B1),IC50 [2],IC50 ([3]; Table B1),IC50 ([4]; Table B1),IC50 ([5]; Table B1)
"Cc1cc(C)c(C#N)c(N2CCC(CC(=O)Nc3ccc4cc3CCc3cncc(c3)Nc3ncc(Cl)c(n3)N4)CC2)n1 [Example A239, N-[6-Chloro-2,4,8,18,22-pentaazatetracyclo[14.3.1.1(3,7).1(9,13)]docosa-1(20),3(22),4,6,9(21),10,12,16,18-nonaen-12-yl]-2-[1-(3-cyano-4,6-dimethylpyridin-2-yl)piperidin-4-yl]acetamide tris(trifluoroacetate)]",> 400 nM,17%,226 nM,> 400 nM,16 nM,,,,,
"N#Cc1cc(F)c(Cl)nc1N1CCC(CC(=O)Nc2ccc3cc2CCc2cncc(c2)Nc2ncc(Cl)c(n2)N3)CC1 [Example A241, 2-[1-(6-Chloro-3-cyano-5-fluoropyridin-2-yl)piperidin-4-yl]-N-[6-chloro-2,4,8,18,22-pentaazatetracyclo[14.3.1.1(3,7).1(9,13)]docosa-1(20),3(22),4,6,9(21),10,12,16,18-nonaen-12-yl]acetamide tris(trifluoroacetate)]",> 400 nM,14%,> 400 nM,> 400 nM,42 nM,,,,,
"O=C(CC1CCN(c2ccncc2F)CC1)Nc1ccc2cc1CCc1cncc(c1)Nc1ncc(Cl)c(n1)N2 [Example A243, N-[6-Chloro-2,4,8,18,22-pentaazatetracyclo[14.3.1.1(3,7).1(9,13)]docosa-1(20),3(22),4,6,9(21),10,12,16,18-nonaen-12-yl]-2-[1-(3-fluoropyridin-4-yl)piperidin-4-yl]acetamide tris(trifluoroacetate)]",235 nM,38%,119 nM,> 400 nM,20 nM,,,,,
"O=C(CC1CCN(c2ccnc(F)c2)CC1)Nc1ccc2cc1CCc1cncc(c1)Nc1ncc(Cl)c(n1)N2 [Example A244, N-[6-Chloro-2,4,8,18,22-pentaazatetracyclo[14.3.1.1(3,7).1(9,13)]docosa-1(20),3(22),4,6,9(21),10,12,16,18-nonaen-12-yl]-2-[1-(2-fluoropyridin-4-yl)piperidin-4-yl]acetamide tris(trifluoroacetate)]",170 nM,66%,171 nM,> 400 nM,30 nM,,,,,
"Cc1cnc2nc1Nc1cccc(c1)/C=C\c1cccc(c1)N2 [Example B1, (14Z)-6-Methyl-2,4,8,22-tetraazatetracyclo[14.3.1.1(3,7).1(9,13)]docosa-1(20),3(22),4,6,9(21),10,12,14,16,18-decaene trifluoroacetate]",,,,,,17 nM,786 nM,5.1 nM,> 100 nM,11 nM
"Cc1cnc2nc1Nc1cccc(c1)CCc1cccc(c1)N2 [Example B2, 6-Methyl-2,4,8,22-tetraazatetracyclo[14.3.1.1(3,7).1(9,13)]docosa-1(20),3(22),4,6,9(21),10,12,16,18-nonaene trifluoroacetate]",,,,,,19 nM,> 1000 nM,8.4 nM,277 nM,11 nM
"Brc1cnc2nc1Nc1cccc(c1)CCc1cccc(c1)N2 [Example B3, 6-Bromo-2,4,8,22-tetraazatetracyclo[14.3.1.1(3,7).1(9,13)]docosa-1(20),3(22),4,6,9(21),10,12,16,18-nonaene trifluoroacetate]",,,,,,15 nM,976 nM,3.5 nM,67 nM,9.2 nM
"COC(=O)c1cc2cc(c1)Nc1nc(ncc1Cl)Nc1cccc(c1)CC2 [Example B5, Methyl 6-chloro-2,4,8,22-tetraazatetracyclo[14.3.1.1(3,7).1(9,13)]docosa-1(20),3(22),4,6,9(21),10,12,16,18-nonaene-11-carboxylate trifluoroacetate]",,,,,,165 nM,> 1000 nM,44 nM,83 nM,107 nM
"O=C(Nc1ccc(F)c(Cl)c1)c1cc2cc(c1)Nc1nc(ncc1Cl)Nc1cccc(c1)CC2 [Example B7, 6-Chloro-N-(3-chloro-4-fluorophenyl)-2,4,8,22-tetraazatetracyclo[14.3.1.1(3,7).1(9,13)]docosa-1(20),3(22),4,6,9(21),10,12,16,18-nonaene-11-carboxamide trifluoroacetate]",,,,,,> 1000 nM,> 10000 nM,700 nM,> 1000 nM,> 1000 nM

# Second part, the compound after the results:
IC50 [1],ALK % of inhibition at a concentration of 500 nM or 1 mM [2],"IC50 [3, 6]","IC50 [4, 7]","IC50 [5, 8]",IC50 ([1]; Table B1),IC50 [2],IC50 ([3]; Table B1),IC50 ([4]; Table B1),IC50 ([5]; Table B1),Structure (SMILES)
244 nM,29%,80 nM,> 400 nM,1.5 nM,,,,,,"N#Cc1c(Cl)cncc1N1CCC(CC(=O)Nc2ccc3cc2CCc2cncc(c2)Nc2ncc(Cl)c(n2)N3)CC1 [Example A240, 2-[1-(5-Chloro-4-cyanopyridin-3-yl)piperidin-4-yl]-N-[6-chloro-2,4,8,18,22-pentaazatetracyclo[14.3.1.1(3,7).1(9,13)]docosa-1(20),3(22),4,6,9(21),10,12,16,18-nonaen-12-yl]acetamide tris(trifluoroacetate)]"
> 400 nM,31%,> 400 nM,> 400 nM,40 nM,,,,,,"O=C(CC1CCN(c2ccncc2)CC1)Nc1ccc2cc1CCc1cncc(c1)Nc1ncc(Cl)c(n1)N2 [Example A242, N-[6-Chloro-2,4,8,18,22-pentaazatetracyclo[14.3.1.1(3,7).1(9,13)]docosa-1(20),3(22),4,6,9(21),10,12,16,18-nonaen-12-yl]-2-(1-pyridin-4-ylpiperidin-4-yl)acetamide tris(trifluoroacetate)]"
41 nM,47%,117 nM,> 400 nM,3.2 nM,,,,,,"N#CCC(=O)N1CCC(CC(=O)Nc2ccc3cc2CCc2cncc(c2)Nc2ncc(Cl)c(n2)N3)CC1 [Example A245, N-[6-Chloro-2,4,8,18,22-pentaazatetracyclo[14.3.1.1(3,7).1(9,13)]docosa-1(20),3(22),4,6,9(21),10,12,16,18-nonaen-12-yl]-2-[1-(cyanoacetyl)piperidin-4-yl]acetamide bis(trifluoroacetate)]"
> 200 nM,39%,120 nM,> 200 nM,15 nM,,,,,,"O=C(CC1CCN(c2ncco2)CC1)Nc1ccc2cc1CCc1cncc(c1)Nc1ncc(Cl)c(n1)N2 [Example A246, N-[6-Chloro-2,4,8,18,22-pentaazatetracyclo[14.3.1.1(3,7).1(9,13)]docosa-1(20),3(22),4,6,9(21),10,12,16,18-nonaen-12-yl]-2-[1-(1,3-oxazol-2-yl)piperidin-4-yl]acetamide tris(trifluoroacetate)]"
84 nM,35%,72 nM,> 200 nM,6.9 nM,,,,,,"Cc1cc(N2CCC(CC(=O)Nc3ccc4cc3CCc3cncc(c3)Nc3ncc(Cl)c(n3)N4)CC2)no1 [Example A247, N-[6-Chloro-2,4,8,18,22-pentaazatetracyclo[14.3.1.1(3,7).1(9,13)]docosa-1(20),3(22),4,6,9(21),10,12,16,18-nonaen-12-yl]-2-[1-(5-methylisoxazol-3-yl)piperidin-4-yl]acetamide bis(trifluoroacetate)]"
82 nM,50%,30 nM,> 200 nM,8.7 nM,,,,,,"Cc1cc(N2CCC(CC(=O)Nc3ccc4cc3CCc3cccc(c3)Nc3ncc(Cl)c(n3)N4)CC2)no1 [Example A248, N-[6-Chloro-2,4,8,22-tetraazatetracyclo[14.3.1.1(3,7).1(9,13)]docosa-1(20),3(22),4,6,9(21),10,12,16,18-nonaen-12-yl]-2-[1-(5-methylisoxazol-3-yl)piperidin-4-yl]acetamide trifluoroacetate]"
> 400 nM,28%,> 400 nM,> 400 nM,226 nM,,,,,,"O=C(COc1ccc2cc1CCc1cncc(c1)Nc1ncc(Cl)c(n1)N2)N1CCn2c(nnc2C(F)(F)F)C1 [Example A249, 6-Chloro-12-{2-oxo-2-[3-(trifluoromethyl)-5,6-dihydro[1,2,4]triazolo[4,3-a]pyrazin-7(8H)-yl]ethoxy}-2,4,8,18,22pentaazatetracyclo[14.3.1.1(3,7).1(9,13)]docosa1(20),3(22),4,6,9(21),10,12,16,18-nonaene bis(trifluoroacetate)]"
,,,,,> 1000 nM,> 1000 nM,800 nM,> 1000 nM,> 1000 nM,"O=C(O)c1cc2cc(c1)Nc1nc(ncc1Cl)Nc1cccc(c1)CC2 [Example B6, 6-Chloro-2,4,8,22-tetraazatetracyclo[14.3.1.1(3,7).1(9,13)]docosa-1(20),3(22),4,6,9(21),10,12,16,18-nonaene-11-carboxylic acid trifluoroacetate]"
